The numbers were not newly measured in patent US7276520B2, “Bicyclic piperidine derivatives as melanocortin-4 receptor agonists” (Merck & Co., Inc., priority 2003, dated 2007), which cites them from elsewhere.

In data set [1] the test system is erectile dysfunction. The conditions noted are these: for duration of effect / onset of action: after an oral dose; for share of men/patients in whom the drug is effective (adequate response): oral.
For data set [2], the system named is males with psychogenic erectile dysfunction.
For data set [3] the following is noted: in vivo, po.

Turning to `CCCc1nn(C)c2c(=O)[nH]c(-c3cc(S(=O)(=O)N4CCN(C)CC4)ccc3OCC)nc12` [sildenafil], in data set [1], the duration of effect result is given as “about 4 hours”, the onset of action is 30 to 60 min and the “share of men/patients in whom the drug is effective (adequate response)” value is given as “about 70%”.

For “Ac-Nle-c[Asp-His-DPhe-Arg-Trp-Lys]-NH2 [MT-II]”, in data set [2] (injected intramuscularly or subcutaneously, psychogenic erectile dysfunction), the response rate is reported as 75%. Also, in data set [2] (subcutaneous injection), the duration of action result was “approximately 2.5 hours” and the “time to onset of erection” value is 10 to 20 min. Moreover, the “absorption into the systemic circulation” value in data set [3] was “not absorbed into the systemic circulation”.

For the compound `Cc1ccc(N(CC2=NCCN2)c2cccc(O)c2)cc1` [phentolamine], in data set [1], the duration of effect is 2 h, the onset of action was 5 to 30 min and the “share of men/patients in whom the drug is effective (adequate response)” value is 35-40%.
